The test system of the assay is Cultured skin fibroblasts exposed to UV rays. In words: cultured skin fibroblasts exposed to UV rays: intracellular GSH and cell survival. The class given is cell-based. The settings on record: for effectiveness for increase of intracellular GSH and of cell survival following exposure to ultraviolet radiation (in words): similar experiments, same concentrations; for cell survival, % (24 h after end of irradiation) / intracellular GSH, % compared to controls (3 h after incubation): fibroblasts exposed to UV rays, 3 h incubation with formulation containing 100 μM S-acyl-glutathione; for cell survival, % (24 h after end of irradiation): UV without compound 10, unexposed control 100; for intracellular GSH, % compared to controls (3 h after incubation): UV without compound 30, unexposed control 100.

In the case of `Cc1c(C)c2c(c(C)c1O)CCC(C)(C(=O)O)O2` (stereo not shown) [Trolox®, reference compound], the “effectiveness for increase of intracellular GSH and of cell survival following exposure to ultraviolet radiation (in words)” value (shortened to “effectiveness for increase”) is reported as “did not produce significant effects”.

Turning to `O=C1O[C@H]([C@@H](O)CO)C(O)=C1O` [ascorbic acid, reference compound], the “effectiveness for increase” value is reported as “did not produce significant effects”.

Regarding `CCCCC/C=C\C/C=C\C/C=C\C/C=C\CCCC(=O)SC[C@H](NC(=O)CC[C@H](N)C(=O)O)C(=O)NCC(=O)O` [arachidonoyl-S-glutathione], the “cell survival, % (24 h after end of irradiation)” value (“cell survival, %” below) is given as 100% and the “intracellular GSH, % compared to controls (3 h after incubation)” value (from here on “intracellular GSH, %”) came to 115%.

In the case of `CC/C=C\C/C=C\C/C=C\C/C=C\C/C=C\C/C=C\CCC(=O)O` [docosahexaenoic acid], the “effectiveness for increase” value was “results similar to those obtained with linolenic and arachidonic acids”.

As for `CCCCCCCC/C=C\CCCCCCCC(=O)SC[C@H](NC(=O)CC[C@H](N)C(=O)O)C(=O)NCC(=O)O` [oleyl-S-glutathione], the “cell survival, %” value is on record as 35% and the “intracellular GSH, %” value is reported as 85%.

For `CC/C=C\C/C=C\C/C=C\CCCCCCCC(=O)SCC(NC(=O)CCC(N)C(=O)O)C(=O)NCC(=O)O` (stereo not shown) [linolenoyl-S-glutathione], the “cell survival, %” value worked out at 97% and the “intracellular GSH, %” value is reported as 115%.

`Oc1ccc(C=Cc2cc(O)cc(O)c2)cc1` [resveratrol, reference compound]: the “effectiveness for increase” value is recorded as “did not produce significant effects”.

For the compound `CC/C=C\C/C=C\C/C=C\CCCCCCCC(=O)N[C@@H](CCC(=O)N[C@@H](CSC(=O)CCCCCCC/C=C\C/C=C\C/C=C\CC)C(=O)NCC(=O)O)C(=O)O` [S,N-di-linolenoyl-S-glutathione], the “cell survival, %” value is 98% and the “intracellular GSH, %” value worked out at 113%.

Consider vitamin E [reference compound], for which the “effectiveness for increase” value is reported as “did not produce significant effects”.

For `CC/C=C\C/C=C\C/C=C\C/C=C\C/C=C\CCCC(=O)SC[C@H](NC(=O)CC[C@H](N)C(=O)O)C(=O)NCC(=O)O` [eicosapentaenoic acid, eicosapentaenoyl-S-glutathione], the “effectiveness for increase” value was “results similar to those obtained with linolenic and arachidonic acids”.

On to `CCCCC/C=C\C/C=C\CCCCCCCC(=O)SC[C@H](NC(=O)CC[C@H](N)C(=O)O)C(=O)NCC(=O)O` [linoleyl-S-glutathione], for which the “cell survival, %” value is reported as 63% and the “intracellular GSH, %” value is listed as 110%.

The record behind these values is patent publication US20160228489A1, “PHARMACEUTICAL COMPOSITION FOR THE PREVENTION AND THE TREATMENT OF DEGENERATIVE SKIN DISORDERS ESPECIALLY CAUSED BY IONIZING RADIATIONS” (SOLOSALE S.R.L., priority 2011, published 2016).
